Measured values from ChEMBL document CHEMBL1128810, “Glutamine-derived aldehydes for the inhibition of human rhinovirus 3C protease” (Bioorg Med Chem Lett, 1995).
Where a SMILES comes first, the peptide text is derived from it. The star is where a group is joined. Boc = CC(C)(C)OC(=O)*

Key:
[1] = test system: Nucleic Acid; test: In vitro ability to selectively inhibit the translation of rhinoviral RNA in translation assay; assay type: functional; settings: Human rhinovirus sp.
[2] = target: T1, Human rhinovirus A protease (Human rhinovirus sp., UniProt Q4U254); test: Inhibitory activity against human rhinovirus-14 Protease 3C; parameters: species or system rhinovirus B14
T1 sequence (Q4U254 whole entry): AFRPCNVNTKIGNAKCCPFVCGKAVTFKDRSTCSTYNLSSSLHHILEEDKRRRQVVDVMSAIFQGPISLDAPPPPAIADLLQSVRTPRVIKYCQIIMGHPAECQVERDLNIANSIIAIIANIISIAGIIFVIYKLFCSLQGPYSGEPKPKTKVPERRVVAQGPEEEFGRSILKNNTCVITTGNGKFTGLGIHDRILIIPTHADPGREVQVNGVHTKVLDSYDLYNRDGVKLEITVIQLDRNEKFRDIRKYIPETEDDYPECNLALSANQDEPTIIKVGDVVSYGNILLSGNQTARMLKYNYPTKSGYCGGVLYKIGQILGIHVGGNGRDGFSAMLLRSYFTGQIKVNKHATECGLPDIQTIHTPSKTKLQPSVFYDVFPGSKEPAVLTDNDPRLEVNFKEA

[3] = test system: rhinovirus B14; test: Inhibitory activity against human rhinovirus-14 in cell culture; assay type: functional; settings: Rhinovirus B; read-out: ED50 (the source's name)
[4] = test system: Nucleic Acid; test: In vitro ability to selectively inhibit the translation of rhinoviral RNA in translation assay; Toxic; assay type: functional; settings: Human rhinovirus sp.

CC(C)CC(=O)N[C@@H](Cc1ccccc1)C(=O)N[C@H](C=O)CCC(N)=O
Activity [1]: > 200 µM
IC50 [2]: > 80 µM

CC(C)(C)OC(=O)N[C@@H](Cc1ccccc1)C(=O)N[C@H](C=O)CCC(N)=O
IC50 [2]: > 80 µM

CC(=O)NCC(=O)N[C@@H](Cc1ccccc1)C(=O)N[C@H](C=O)CCC(N)=O (Ac-Gly-Phe-Gln-aldehyde)
IC50 [2]: 16 µM

CC(=O)N[C@@H](CC(C)C)C(=O)N[C@@H](Cc1ccccc1)C(=O)N[C@H](C=O)CCC(N)=O (Ac-Leu-Phe-Gln-aldehyde)
Activity [1]: 170 µM
IC50 [2]: 2.7 µM

CC(C)C[C@H](NC(=O)OC(C)(C)C)C(=O)N[C@@H](Cc1ccccc1)C(=O)N[C@H](C=O)CCC(N)=O (Boc-Leu-Phe-Gln-aldehyde)
IC50 [2]: > 80 µM

CC(C)C[C@H](NC(=O)[C@@H](NC(=O)OC(C)(C)C)C(C)C)C(=O)N[C@@H](Cc1ccccc1)C(=O)NCC=O (Boc-VLFG-aldehyde)
Activity [1]: 180 µM
IC50 [2]: 10 µM

CC(C)C[C@H](NC(=O)[C@@H](NC(=O)OC(C)(C)C)C(C)C)C(=O)N[C@@H](Cc1ccccc1)C(=O)N[C@H](C=O)CCC(N)=O (Boc-VLFQ-aldehyde)
Activity [1]: 10 µM
EC50 [3]: 500 µM
IC50 [2]: 0.6 µM

CC(C)C[C@H](N)C(=O)N[C@@H](Cc1ccccc1)C(=O)N[C@H](C=O)CCC(N)=O (H-Leu-Phe-Gln-aldehyde)
IC50 [2]: 1 µM
Activity [4]: Toxic
